# According to patent publication US7556928B2, “Method of screening a population of cells” (One Cell Systems, Inc., priority 2001, dated 2009):
# Columns and labels:
# CRL-8018 hybridoma cells [1] = experiment: Microdrop isotype capture and isolation assay (FACS); format: cell-based, mouse; conditions: 100 nM
# Experimental: Determination of Spontaneous and In-vitro Stimulated Switching Rate Using the Microdrop Isotype Capture and Isolation Assay Due to the low rate of isotype switching, analysis of large cell populations is necessary. —We, therefore, used a modified microdrop encapsulation protocol to isolate spontaneous or in-vitro induced rare IgG isotype switch variants among IgM secreting hybridoma cells. If the IgG concentration in supernatants was <0.1 μg/ml, we initially encapsulated multiple cells, followed by single cell encapsulation. In all cases, if,after in-vitro induction, the concentration of secreted IgG in supernatants was >0.1 μg/ml, one round of single cell encapsulation was sufficient for discriminating and sorting a small sub-population of positive cells.
# Two aliquots of 500 μl melted CelBioGel-3™ were vortexed with 25 μl of 10% Pluronic F-68 solution (Sigma-Aldrich), equilibrated at 37° C. for 3 min and then each was mixed with at least 2×10^6 hybridoma cells in […] of growth medium. These mixtures were added to 15 ml prewarmed CelMix™, covered and shaken vigorously 10 times to form an emulsion. Then the vial was attached to CellSys100™ Microdrop Maker (One Cell Systems, Inc) and the emulsion was mixed at 1800 rpm for 1 min at RT, then 1800 rpm for 1 min at 0° C., and subsequently 1000 rpm for 6 min at 0° C. Microdrops were washed three times in DPBS to remove oil and then incubated in 7 ml DPBS containing streptavidin (Sigma-Aldrich) at a final concentration of 10 μg/ml for 10 min at RT.
# After incubating with streptavidin, microdrops were washed three times by resuspending in 15 ml DPBS- followed by centrifugation at 1500 rpm for 5 min and then incubated with 10 μg/ml of biotinylated goat anti-mouse IgG for 10 min. Microdrops were again washed three times in DPBS- (as above) and resuspended in 20 ml of prewarmed growth medium and incubated at 37° C. for 2 hr for antibody secretion by the encapsulated cells. After incubation, microdrops were pelleted by centrifugation at 1500 rpm for 5 min, resuspended in cold DPBS- and labelled with 10 μg/ml of FITC-conjugated goat anti-mouse IgG-specific antibody (Jackson Immunochemicals). microdrops were washed twice in HBSS, resuspended in 2 ml of growth medium and sorted using a Coulter EPICS Elite; gating was set to sort only highly positive microdrops, based on controls.
# To determine spontaneous and in-vitro induced switching rate using the microdrop isotype capture and isolation assay, CRL-8018 hybridoma cells were plated out in two 75 cm^2 flasks or two 12-well plates (2 ml/well) at a density of 1×10^4 cells/ml in complete growth medium alone or in the presence of stimulators as described above. Cells were cultured at 37° C., 5% CO2 in a humid incubator for 5 days. Cell culture supemates were harvested and IgM and/or IgG production was tested using IsoStip™ or an ELISA-based mouse Isotyping kit (Zymed, Inc.). All cells from 75 cm2 flasks and from wells positive for IgG production were pooled, resuspended in 100-200 μl of growth medium and encapsulated in microdrops. The first round of isotype capture and isolation enrichment with multiple occupied microdrops was then performed, as described above. After sorted cells were propagated in culture for 5 days, the second round of the assay was performed usingmicrodrops occupied by single cells. After isolation by FACS, IgG secretors were plated out in 96-well plates, 1 cell/well. The number of recovered clones was estimated using supernatant ELISA after incubating plates at 37° C. in 5% C02 for 14 days.
# Fluorescence Activated Cell Sorting Cell sorting was performed using an EPICS Elite™ Coulter Corp. with a 100 μm flow nozzle. FITC-labelled detection regents were excited by the 488 nm spectral line of an argon laser. Green (FITC) fluorescence was collected using a 525 nm, long pass band filter. For statistical analysis, EPICS Elite 4.02 software was used. […]
# CRL-8018 hybridoma cells [2] = experiment: In-vitro induced IgG isotype switching by sequential sublining and mIgG ELISA; format: cell-based, mouse; conditions: retinoic acid 100 nM
# Experimental: Induction of Class-Switching Using CRL-8018 cell line, we investigated and evaluated methods of increasing the number class-switching events in-vitro. Cells were plated in 75 cm^2 flasks or in 12-well plates at 1×10^4/ml and incubated for 7 days in complete growth medium supplemented with:
# Determination of In-vitro Induced Switching Rate Using Sequential Sublining CRL-8018 cells were resuspended in growth medium supplemented with mitogen(s)/growth factors as described above and plated out in ten 96-well plates at a density of 1,000 cells/well. Cells were cultured at 37° C., 5% CO2 in a humid incubator for 5 days. Cell culture supernates were collected and an isotype-specific ELISA performed. Briefly, 96-well flexible assay plates, previously coated with 10μg/plate of purified goat anti-mouse IgG (Jackson Immunochemicals) in 20 mM NaHCO3 (Sigma-Aldrich), 50 μl/well, were incubated overnight at 4° C. and then washed 3 times in Dulbecco's phosphate buffered saline without calcium and magnesium/0.2% Tween 20 (DPBS-/Tween) (Sigma-Aldrich). Non-specific protein binding sites were blocked using PBS+1% BSA, 200 μl/well for 2 hr at room temperature (RT).
# 100 μl of each of the culture supemates were harvested and incubated in the anti-IgG coated plates for 2 hr at RT. The assay plates were washed three times in DPBS-/Tween, and 50 μl of HRP conjugated goat anti-mouse IgG (Jackson Immunochemicals) diluted 1:100 in PBS/Tween were applied to each well and incubated at RT for 1 hr. Plates were washed again and developed using 100 μl of TMB substrate solution (Sigma-Aldrich). The reaction was halted with 0.5M H2SO4 (Sigma-Aldrich) and plates were read at […] on an ELx800 ELISA plate reader (Bio-TEK Instruments, Inc.). Five rounds of the above procedure were performed to determine the switching rate.
# 11. Detection of In-vitro Induced IgG Isotype Switching Rate Among CRL-8018 Hybridoma Cells Using Sequennal Sublining Experiments were performed with CRL-8018 hybridoma cell line as described in Materials and Methods. […] Sequental sublining was performed as described in Materials and Methods. 1×10^6 cells were resuspended in 200 ml of growth medium supplemented with 100 nM of retinoic acid (5×10^3/ml) and plated out in ten 96-well plates at a density of 1,000 cells/well (0.2 ml/well). After 5 days of incubation at 37° C. and 5% CO2, mIgG isotype specific ELISA was performed with cell culture supemates. Cells from two positive wells were plated out in 96-well plates at a density of 100 cells/well (25 plates). Five rounds of the above procedure were performed: 1,000 cells/well, 100 cells/well, 10 cells/well, and 1 cell/well. […] About two months, 110 plates and 10,560 supemates for mIgG isotype specific ELISA were required for the assay.
# [3] = after first round with 25 × 10^6 cells
# [4] = second round, highest-fluorescence sub-population
smiles,measurement,setting,value
CC1=C(/C=C/C(C)=C/C=C/C(C)=C/C(=O)O)C(C)(C)CCC1 [retinoic acid],"First round of FACS, FITC MFI","CRL-8018 hybridoma cells [1]; 2 × 10^6 cells, single cell encapsulation",320.65
same,"First round of FACS, % positive events detected","CRL-8018 hybridoma cells [1]; 2 × 10^6 cells, single cell encapsulation, 1 cell per GMD",0.15%
same,"First round of FACS, FITC MFI","CRL-8018 hybridoma cells [1]; 25 × 10^6 cells, multiple cell encapsulation",17.93
same,"First round of FACS, % positive events detected","CRL-8018 hybridoma cells [1]; 25 × 10^6 cells, multiple cell encapsulation, 2.5 cells per GMD",0.09%
same,"Sequential second round of FACS of single occupied GMDs, % positive events detected",CRL-8018 hybridoma cells [1]; [3],36.4%
same,"Sequential second round of FACS of single occupied GMDs, FITC MFI",CRL-8018 hybridoma cells [1]; [3],11.3
same,Sorted GMDs % pos,CRL-8018 hybridoma cells [1]; [4],2.9%
same,Sorted GMDs MFI,CRL-8018 hybridoma cells [1]; [4],75.2
same,rate of isotype switching,CRL-8018 hybridoma cells [2],~0.0006%
same,% positive wells,"CRL-8018 hybridoma cells [2]; 1 cell/well, of 2400 wells",91.2%
same,% positive wells,"CRL-8018 hybridoma cells [2]; 10 cells/well, of 2400 wells",23.5%
same,% positive wells,"CRL-8018 hybridoma cells [2]; 100 cells/well, of 2400 wells",12.4%
same,% positive wells,"CRL-8018 hybridoma cells [2]; 1,000 cells/well, of 960 wells",0.6%
same,mIgG positive wells,CRL-8018 hybridoma cells [2]; plating density 1 cell/well,2188
same,mIgG positive wells,CRL-8018 hybridoma cells [2]; plating density 10 cells/well,564
same,mIgG positive wells,CRL-8018 hybridoma cells [2]; plating density 100 cells/well,298
same,mIgG positive wells,"CRL-8018 hybridoma cells [2]; plating density 1,000 cells/well",6
